Patent publication US4746675A, “External pharmaceutical composition” (Teijin Limited, priority 1983, dated 1988)
Each block holds one molecule with its values, some of them ahead of it.

Assays:
[1] = test system: eye (cornea, iris, conjunctiva); experiment: primary eye irritation (Draize) in rabbits; assay type: in vivo, white native male rabbits; settings: 2.4% soln, average of three rabbits
Description: enhancers of this invention shown in Table 17 was applied dropwise to one eye of white native male rabbits (body weight 2.0 to 3.0 kg; 3 per group) which, it had been ascertained, were free from any trouble at the cornea, iris and conjunctiva. Nothing was applied to the other eye. Thus, irritation of the absorption aid to the mucous membrane of the eyes were examined, and scores were calculated in accordance with the Draize's eye irritation evaluating method [Association of Foods, "Drugs and Cosmetics" (1957)].
As a control, sodium laurylsulfate, a kind of surface-active agent, was evaluated in the same way, and the results are also shown in Table 17.

carrageenan edema = carrageenan edema inhibiting effect of betamethasone valerate ointments; assay type: in vivo, rat; settings: Table 5, betamethasone valerate ointment with penetration enhancer
Description: An ointment was prepared from 0.15 part by weight of betamethasone valerate, 9.85 parts by weight of compound (168) and 90 parts by weight of the hydrophilic ointment.
In accordance with the method of R. Passarella et al. [Argneim. Forsch 30, (I), Nr. 4, 647-651 (1980)], the carrageenan edema inhibiting effect of the above ointment was examined. Specifically, 0.1 ml of a 1% carrageenan suspension in 0.9% NaCl solution was injected into the tip of the right leg of a rat (body weight 150-175 g). The foot volume was measured immediately after administration of carrageenan and 3, 5, and 6 hours after the administration by means of a mercury displacement device. 0.5, 1 and 2 hours after the administration of carrageenan, 100 mg of the ointment was well […] into each of the sites which underwent inflammation.
Various ointments were prepared from 0.15 part by weight of betamethasone valerate, […] of the various penetration enhancers shown in Table 5, and 85 parts by weight of the hydrophilic ointment, and tested in the same way as in Example 23.

[2] = diffusion of drug through egg shell membrane in diffusion cell; assay type: in vitro ADME
Description: A diffusion cell was partitioned by an egg shell membrane. […] While maintaining a temperature of 37° C., the two liquid phases were stirred, and after a lapse of a predetermined period of time, the amount of the drug which diffused into the acceptor side from the donor side was measured.
The diffusion cell used was a glass cell for use in an ordinary diffusion experiment. The egg shell was obtained by removing the contents of an egg from the shell, immersing the shell in 0.7% acetic acid for 30 minutes, subjecting it to ultrasonication for 15 minutes, and carefully peeling the membrane from the shell.
A control test was carried out in the same way as above except that only the drug was added to the donor side.
The amount of the drug which diffused to the acceptor side was measured 30 minutes later, and compared with the control.
The relative amount of the drug diffused from the drug-penetration enhancer system was calculated by taking the amount of the drug diffused from the control donor side as 100. […] Bull., Vol. 20, p.

SMILES: CCCCCCCCCCCC(=O)OCC(O)COC(=O)[C@@H]1CCC(=O)N1 (stereo partly shown) [Compound (172), 3-dodecanoyloxy-2-hydroxy-1-pyroglutamyloxypropane]
Primary irritation score, Conjunctiva ([1]; 1 hour): 3.3
Primary irritation score, Cornea ([1]; 1 hour): 0
Primary irritation score, Iris ([1]; 1 hour): 0
Primary irritation score, Total ([1]; 1 hour): 3.3
Primary irritation score, Conjunctiva ([1]; 3 hours): 2.0
Primary irritation score, Cornea ([1]; 3 hours): 0
Primary irritation score, Iris ([1]; 3 hours): 0
Primary irritation score, Total ([1]; 3 hours): 2.0
Primary irritation score, Conjunctiva ([1]; 6 hours): 1.3
Primary irritation score, Cornea ([1]; 6 hours): 0
Primary irritation score, Iris ([1]; 6 hours): 0
Primary irritation score, Total ([1]; 6 hours): 1.3
Primary irritation score, Conjunctiva ([1]; 24 hours): 0
Primary irritation score, Cornea ([1]; 24 hours): 0
Primary irritation score, Iris ([1]; 24 hours): 0
Primary irritation score, Total ([1]; 24 hours): 0
Primary irritation score, Conjunctiva ([1]; 48 hours): 0
Primary irritation score, Cornea ([1]; 48 hours): 0
Primary irritation score, Iris ([1]; 48 hours): 0
Primary irritation score, Total ([1]; 48 hours): 0
Primary irritation score, Conjunctiva ([1]; 72 hours): 0
Primary irritation score, Cornea ([1]; 72 hours): 0
Primary irritation score, Iris ([1]; 72 hours): 0
Primary irritation score, Total ([1]; 72 hours): 0
Primary irritation score, Conjunctiva ([1]; 96 hours): 0
Primary irritation score, Cornea ([1]; 96 hours): 0
Primary irritation score, Iris ([1]; 96 hours): 0
Primary irritation score, Total ([1]; 96 hours): 0
Primary irritation score, Conjunctiva ([1]; 168 hours): 0
Primary irritation score, Cornea ([1]; 168 hours): 0
Primary irritation score, Iris ([1]; 168 hours): 0
Primary irritation score, Total ([1]; 168 hours): 0
Percentage inhibition vs. control (carrageenan edema; 3 hrs): 18.1%
Percentage inhibition vs. control (carrageenan edema; 5 hrs): 37.2%
Percentage inhibition vs. control (carrageenan edema; 6 hrs): 35.5%

Relative amount of the drug diffused [2]: 181
SMILES: C[C@]12CC[C@@H]3c4ccc(O)cc4CC[C@H]3[C@@H]1CC[C@@H]2O [Estradiol]

Relative amount of the drug diffused [2]: 123
SMILES: C=C1/C(=C\C=C2/CCC[C@]3(C)[C@@H]([C@H](C)CCCC(C)(C)O)CC[C@@H]23)C[C@@H](O)C[C@@H]1O [1,25-Dihydroxyvitamin D3]
